What follows are compounds tested against T1, human TLR8 (Homo sapiens, UniProt Q9NR97) (assay: In vitro human TLR8 reporter assay (HEK-Blue cells, NF-kB/AP1-inducible SEAP)). Conditions: HEK-Blue cells expressing TLR8, SEAP reporter; read-out: TLR8 Agonist EC50.
T1 construct: host or cells: HEK-Blue cells (human HEK) co-expressing TLR8 and an NF-kB/AP1-inducible SEAP reporter
T1 sequence (Q9NR97 27-1041): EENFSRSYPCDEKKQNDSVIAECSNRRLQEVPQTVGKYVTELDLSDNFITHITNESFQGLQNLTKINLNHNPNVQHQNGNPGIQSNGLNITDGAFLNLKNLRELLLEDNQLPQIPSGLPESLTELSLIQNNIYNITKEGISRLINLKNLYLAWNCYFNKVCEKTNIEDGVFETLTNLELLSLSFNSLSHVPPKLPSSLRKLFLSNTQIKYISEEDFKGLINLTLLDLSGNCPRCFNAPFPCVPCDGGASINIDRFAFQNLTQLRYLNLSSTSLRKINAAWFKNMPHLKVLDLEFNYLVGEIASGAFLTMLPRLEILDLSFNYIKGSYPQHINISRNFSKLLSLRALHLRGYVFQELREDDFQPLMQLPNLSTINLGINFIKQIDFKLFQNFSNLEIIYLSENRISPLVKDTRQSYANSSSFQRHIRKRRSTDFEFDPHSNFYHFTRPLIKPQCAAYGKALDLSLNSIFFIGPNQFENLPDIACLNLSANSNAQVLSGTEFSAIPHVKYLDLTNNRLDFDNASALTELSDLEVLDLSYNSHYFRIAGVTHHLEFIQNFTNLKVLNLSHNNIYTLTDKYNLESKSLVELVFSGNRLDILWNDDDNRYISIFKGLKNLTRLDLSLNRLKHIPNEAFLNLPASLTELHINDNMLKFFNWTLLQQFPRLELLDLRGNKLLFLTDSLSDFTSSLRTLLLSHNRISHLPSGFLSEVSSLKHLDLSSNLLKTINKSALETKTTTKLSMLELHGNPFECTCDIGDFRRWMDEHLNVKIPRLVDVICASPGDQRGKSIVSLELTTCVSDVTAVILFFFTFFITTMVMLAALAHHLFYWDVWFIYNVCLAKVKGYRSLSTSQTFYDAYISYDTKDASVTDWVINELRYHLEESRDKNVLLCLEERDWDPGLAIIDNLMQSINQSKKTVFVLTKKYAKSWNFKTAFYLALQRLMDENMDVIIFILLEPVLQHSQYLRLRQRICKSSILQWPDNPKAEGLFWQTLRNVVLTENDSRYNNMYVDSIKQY
Type: cell-based
Description: In Vitro Human TLR7 and TLR8 Binding Reporter Assays
Logarithmically-growing human HEK-Blue cells co-expressing a TLR7 or TLR8 gene and a NF-kB/AP1-inducible SEAP (secreted embryonic alkaline phosphatase; Invivogen, San Diego, Calif.) reporter gene are added to individual wells of a 384-well plate (15,000 cells per 20 μL per well) and maintained for 24 h at 37° C., 5% CO2. Test compounds or DMSO are distributed to separate wells the next day using acoustic liquid handling technology (100 nL per well) and cells are subsequently incubated for 18 h at 37° C., 5% CO2. Cellular SEAP production is measured using an Envision plate reader instrument thirty minutes after adding freshly-made Quanti-Blue reagent (prepared by following manufacturer instructions; Invivogen, San Diego, Calif.) to the HEK-Blue TLR Nf-kB-SEAP cell reactions. All EC50 values (half-maximal effective concentration) are determined using proprietary data analysis software. Normalized EC50 value=absolute value determined by setting 100% Ymax using a reference standard RLU (relative light unit) values from cells treated with 50 μM of the reference standard.

EC50 [µM]	Structure (SMILES)
1 to 20	Nc1nc2cc(-c3cc[nH]n3)ccc2c2c1nc(CN1CC(F)(F)C1)n2CC(F)F [Example 2]

Each compound was assayed against T2, NLRP3 (Homo sapiens, UniProt Q96P20) (assay: Measurement of IL-1β production in PMA-differentiated THP-1 cells (NLRP3 hIL1B)). Conditions: read-out: NLRP3 hILIB IC50.
T2 construct: host or cells: PMA-differentiated THP-1 cells
T2 sequence (Q96P20 whole entry): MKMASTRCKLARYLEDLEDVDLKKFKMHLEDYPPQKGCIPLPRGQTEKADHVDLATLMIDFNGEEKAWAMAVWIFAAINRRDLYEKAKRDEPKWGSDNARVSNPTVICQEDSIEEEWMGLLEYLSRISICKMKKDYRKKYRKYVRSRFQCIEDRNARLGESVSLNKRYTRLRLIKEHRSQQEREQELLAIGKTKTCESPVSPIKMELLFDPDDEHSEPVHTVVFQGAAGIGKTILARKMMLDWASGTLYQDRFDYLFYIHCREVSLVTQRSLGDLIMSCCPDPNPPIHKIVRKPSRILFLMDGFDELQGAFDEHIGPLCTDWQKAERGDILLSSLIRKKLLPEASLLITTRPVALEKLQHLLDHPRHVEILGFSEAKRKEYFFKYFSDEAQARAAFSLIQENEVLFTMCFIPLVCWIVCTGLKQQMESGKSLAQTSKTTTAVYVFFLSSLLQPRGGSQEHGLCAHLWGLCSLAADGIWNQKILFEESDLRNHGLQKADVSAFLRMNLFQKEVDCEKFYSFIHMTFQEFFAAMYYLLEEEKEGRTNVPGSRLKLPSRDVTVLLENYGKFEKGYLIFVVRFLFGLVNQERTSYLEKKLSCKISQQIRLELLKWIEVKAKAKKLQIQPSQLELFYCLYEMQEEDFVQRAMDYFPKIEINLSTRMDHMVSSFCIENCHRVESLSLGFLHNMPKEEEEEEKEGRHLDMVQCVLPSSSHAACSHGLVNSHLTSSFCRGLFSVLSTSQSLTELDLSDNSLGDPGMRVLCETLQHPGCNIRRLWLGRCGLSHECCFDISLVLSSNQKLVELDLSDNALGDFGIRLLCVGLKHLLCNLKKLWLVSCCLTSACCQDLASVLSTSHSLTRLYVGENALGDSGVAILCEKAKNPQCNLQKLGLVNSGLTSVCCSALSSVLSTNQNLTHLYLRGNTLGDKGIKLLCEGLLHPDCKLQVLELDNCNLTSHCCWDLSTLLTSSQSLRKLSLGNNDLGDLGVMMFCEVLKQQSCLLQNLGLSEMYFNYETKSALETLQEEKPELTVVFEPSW
Type: cell-based
Description: Measurement of IL-1β Production in PMA-Differentiated THP-1 Cells
THP-1 cells were purchased from the American Type Culture Collection and sub-cultured according to instructions from the supplier. Prior to experiments, cells were cultured in RPMI 1640 containing 10% heat inactivated FBS, penicillin (100 units/ml) and streptomycin (100 μg/ml), and maintained in log phase prior to experimental setup. Prior to the experiment THP-1 were treated with PMA (Phorbol 12-myristate 13-acetate) ([…]) for 24 hours. The day of the experiment the media was removed and attaching cells were treated with trypsin for 2 minutes, cells were then collected, washed with PBS (phosphate buffer saline), spin down, resuspended in 2% heat inactivated FBS with RPMI at a concentration of 1×10^6 cells/ml, and 100 μl was plated in a 96 well plate. Compounds were dissolved in dimethyl sulfoxide (DMSO) and added to the culture medium to achieve desired concentration (e.g. 100, 30, 10, 3, 1, 0.3 or 0.1 μM). Cells were incubated with compounds for 4 hours. Cell free supernatant was collected and the production of IL-1β was evaluated by ELISA. A vehicle only control was run concurrently with each experiment. Final DMSO concentration was 1%.
Measurement of IL-1β Production in PMA-Differentiated THP-1 Cells (Alternative Procedure)
THP-1 cells were purchased from the American Type Culture Collection and sub-cultured according to instructions from the supplier. Prior to experiments, cells were cultured in RPMI 1640 containing 10% heat inactivated FBS, penicillin (100 units/ml), streptomycin (100 μg/ml), HEPES (10 mM) and sodium pyruvate (1 mM) and maintained in log phase prior to experimental setup. Prior to the experiment, THP-1 cells were treated with PMA (Phorbol 12-myristate 13-acetate) (20 μg/ml) overnight. The day of the experiment, the media was removed and attached cells were treated with trypsin for 2 minutes, cells were then collected, washed with PBS (phosphate buffer saline), pelleted by centrifugation and resuspended in 2% heat inactivated FBS with RPMI at a concentration of 50,000 cells/well in a 384 well plate. Cell free supernatant was collected and the production of IL-1β was evaluated by ELISA. Compounds were dissolved in dimethyl sulfoxide (DMSO) and added to the culture medium to achieve desired concentration (e.g. 100, 30, 10, 3, 1, 0.3 or 0.1 μM). Cells were incubated with compounds for 2 hours. A vehicle only control was run concurrently with each experiment. Final DMSO concentration was 1%.
Measurement of IL-1β Production—hTRF Protocol (Second Alternative Procedure)
Serial dilutions of compounds in DMSO were added to low volume 384 well plates at 100 nl/well using an ECHO 550 acoustic dispenser (Labcyte) to achieve final starting concentration of 10 μM in assay.
THP-1 cells in RPMI (Gibco, 11875) media with 10% FBS at a density of 1×10^6 cell/ml in a T175 flask were treated with a final concentration of phorbol 12-myristate 13-acetate (PMA) (Sigma, P1585) of 50 ng/ml overnight at 37° C. at 5% CO2 for differentiation. Cells were harvested the next day after rinsing well with dPBS using 0.5% trypsin. A cell solution was prepared of 1×10^6 cells/ml for 50,000 cells in 50 μl/well in RPMI media with 2% FBS. Cells were plated using a multichannel pipette onto the compound dilutions in Greiner, 384 well, black clear bottom tissue culture treated plates (781090). The plates were incubated in 37° C. incubator at 5% CO2 for 2 hours.
After the 2 hour incubation, the cell plates were spun in the centrifuge for 5 minutes at 1200 rpm. Using the Felix (CyBio), 8 μl of the supernatant was transferred to 384 well, low volume, white proxy plates. (Perkin Elmer, 6008230). A human IL1beta hTRF kit was used to analyze the supernatant (CISBIO, 62HIL1BPEG). The kit instructions were followed for preparing the IL1Beta standard curve and then the antibodies from the kit were diluted 1:40 rather than 1:20 as kit instructed. […]

Structure (SMILES)	IC50 [µM]
COC1CN(Cc2nc3c(N)nc4cc(-c5cc[nH]n5)ccc4c3n2C2CCC2)C1 [Example 1, 1-cyclobutyl-2-[(3-methoxyazetidin-1-yl)methyl]-7-(1H-pyrazol-5-yl)-1H-imidazo[4,5-c]quinolin-4-amine]	0.12
Nc1nc2cc(-c3cc[nH]n3)ccc2c2c1nc(CN1CC(F)(F)C1)n2CC(F)F [Example 2]	0.08
Nc1nc2cc(-c3cc[nH]n3)ccc2c2c1nc(CN1CC(F)C1)n2CC(F)F [Example 3]	0.22
Nc1nc2cc(-c3cc[nH]n3)ccc2c2c1nc(CN1CCC1)n2C1CC1 [Example 4]	0.18
COC1CN(Cc2nc3c(N)nc4cc(-c5cc[nH]n5)ccc4c3n2C2CC2)C1 [Example 5]	0.27
Nc1nc2cc(-c3cc[nH]n3)ccc2c2c1nc(CN1CC(F)C1)n2C1CCC1 [Example 6]	0.26
COC1CN(Cc2nc3c(N)nc4cc(-c5cc[nH]n5)ccc4c3n2CC(F)F)C1 [Example 7]	0.22
Nc1nc2cc(-c3cc[nH]n3)ccc2c2c1nc(CN1CC(F)(F)C1)n2C1CCC1 [Example 8]	0.2
Nc1nc2cc(-c3cc[nH]n3)ccc2c2c1nc(CN1CC(F)C1)n2C1CC1 [Example 10]	0.25
Nc1nc2cc(-c3cc[nH]n3)ccc2c2c1nc(CN1CC3(CCCO3)C1)n2C1CCC1 [Example 11]	0.24

Other lines, results leading:

IC50 [µM]	Structure (SMILES)
2	N#CC1CN(Cc2nc3c(N)nc4cc(-c5cc[nH]n5)ccc4c3n2C2CC2)C1 [Example 12]
0.63	CC(C)n1c(CN2CC(C#N)C2)nc2c(N)nc3cc(-c4cc[nH]n4)ccc3c21 [Example 13]
1.61	Nc1nc2cc(-c3cc[nH]n3)ccc2c2c1nc(CN1CC3(CCCO3)C1)n2C1CC1 [Example 14]
1.1	CC(C)n1c(CN2CC(C)(O)C2)nc2c(N)nc3cc(-c4cc[nH]n4)ccc3c21 [Example 15]
4.8	Nc1nc2cc(-c3cc[nH]n3)ccc2c2c1nc(CN1CC(O)C1)n2C1CC1 [Example 16]
2.2	CC1(O)CN(Cc2nc3c(N)nc4cc(-c5cc[nH]n5)ccc4c3n2C2CCC2)C1 [Example 17]
